These results are taken from PubChem BioAssay (NCI).

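Values below derive from 48-hour exposures of cells grown in 96-well plates, with endpoints linearly interpolated between the two concentrations bracketing the appropriate inhibition level. The concentration for full growth arrest is given as TGI.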

What all share (experiment): inhibition of tumour cell growth, NCI panel, 48 h
The test system of assay [1] is LOX IMVI melanoma.
Assay [2] relates to NCI-H226 lung.
The subject of assay [3] is HS 578T breast.
The subject of assay [4] is OVCAR-8 ovarian.
The test system of assay [5] is U251 CNS.
The subject of assay [6] is CCRF-CEM leukemia.
Assay [7] deals with SR leukemia.
Assay [8] relates to RXF 393 renal.
The test system of assay [9] is HL-60(TB) leukemia.
Assay [10] relates to M14 melanoma.
Assay [11] relates to OVCAR-4 ovarian.
In assay [12] the test system is SNB-75 CNS.
In assay [13] the test system is SF-295 CNS.
For assay [14], the system named is NCI-H23 lung.
Assay [15] deals with SW-620 colon.
Assay [16] relates to SF-539 CNS.
Assay [17] concerns IGROV1 ovarian.
The subject of assay [18] is HCC-2998 colon.
The subject of assay [19] is OVCAR-5 ovarian.

In the case of `CC(C)CCC[C@@H](C)C1CCC2[C@@H]3CCC4C[C@@H](NS(C)(=O)=O)CC[C@]4(C)C3CC[C@@]21C` (some centres undefined), the TGI in [1], in [2], in assay [3], in assay [4], in assay [5] and in assay [6] was more than 100 µM each time. Moreover, the TGI in [7], in assay [8], in assay [9], in [10], in assay [11] and in assay [12] was more than 100 µM each time. The TGI in assay [13], in [14], in assay [15], in [16] and in assay [17] was more than 100 µM each time.

In the case of `OC(Cc1ccc2ccccc2n1)(C(F)(F)Cl)C(F)(F)Cl`, the TGI in [1], in [2], in assay [3], in [4], in assay [5] and in [6] was more than 10 µM each time. For the same compound, the TGI in assay [7], in assay [18], in assay [10], in [11], in assay [12] and in assay [13] was more than 10 µM throughout. Besides, the TGI in [14], in [15], in [16], in [19] and in assay [17] was more than 10 µM each time.

Regarding `COC(=O)c1nn2ccc3ccccc3c2c1C(=O)OC`, the TGI in assay [1], in assay [2], in [3], in [4], in assay [5] and in [7] was more than 100 µM in each case. The TGI in [8], in [9], in [10], in assay [11], in [12] and in [13] was more than 100 µM throughout. In addition, the TGI in [14], in assay [15], in assay [16], in [19] and in assay [17] was more than 100 µM throughout.

For `N/C(=N\N=C\c1cc(I)cc(I)c1O)NO`, the TGI was more than 100 µM in assay [1]; 44.5 µM in assay [2]; more than 100 µM in [3]; more than 100 µM in assay [4]; more than 100 µM in assay [5]; 52.4 µM in assay [6]. Further, the TGI in [8] is more than 100 µM; in assay [18], more than 100 µM; in [9], 35.4 µM; in [10], 44.2 µM; in assay [11], more than 100 µM; in assay [13], more than 100 µM. Moreover, the TGI was 79.3 µM in assay [14]; more than 100 µM in [15]; 75.6 µM in assay [16]; more than 100 µM in assay [19]; more than 100 µM in assay [17].

Turning to `CC(C)CC1c2[nH]c3ccccc3c2C[C@H]2C(=O)NC(CCCCNC(=O)OC(C)(C)C)C(=O)N12` (some centres undefined), the TGI in [1] was more than 100 µM; in assay [2], more than 100 µM; in assay [3], 25.6 µM; in [4] it was more than 100 µM; in [5] it was more than 100 µM; in assay [7] it was 50 µM. The TGI in assay [8] is 27.3 µM; in assay [9], 46.9 µM; in assay [10], more than 100 µM; in assay [11] it was more than 100 µM; in assay [13], 40.9 µM; in assay [14], more than 100 µM. The TGI in assay [15], in [19] and in [17] was more than 100 µM each time.

Consider `CCO/C(O)=C(/C(=N)N1CCCC1)C(=O)Nc1cccc(Cl)c1`, for which the TGI in assay [1], in assay [2], in [3], in assay [4], in [5] and in assay [6] was more than 100 µM in each case. The TGI in [8], in assay [18], in assay [9], in [10], in assay [11] and in assay [12] was more than 100 µM in each case. In addition, the TGI in assay [13], in assay [14], in assay [15], in [16], in assay [19] and in [17] was more than 100 µM throughout.

Regarding `CSc1nn(C)cc2nc(C)nc1-2`, the TGI in [2], in [3], in [4], in [5], in assay [6] and in assay [7] was more than 100 µM in each case. The TGI in assay [8], in [9], in assay [10], in [12], in [13] and in [14] was more than 100 µM in each case. Also, the TGI in assay [15], in assay [16], in assay [19] and in [17] was more than 100 µM in each case.

In the case of `CN(C)C(=O)OC1=CC2CCC(C1)N2C` (centres undefined), the TGI in assay [1], in assay [2], in [3], in [4], in [5] and in assay [6] was more than 100 µM throughout. For the same compound, the TGI in assay [7], in assay [8], in [10], in assay [11], in [12] and in assay [13] was more than 100 µM in each case. For the same compound, the TGI in [14], in [15], in assay [16], in assay [19] and in assay [17] was more than 100 µM in each case.
